Values of other authors, collected in patent US20050027113A1, “Compositions and methods relating to the daptomycin biosynthetic gene cluster” (priority 2001, published 2005).

Tests used:
[1] = system: gram-positive organisms
[2] = administration of daptomycin and an aminoglycoside

Question: Which “antibacterial activity against classically resistant strains versus classically susceptible strains” value ([1]; in vitro experiments) does the source give for `CCCCCCCCCC(=O)N[C@@H](Cc1c[nH]c2ccccc12)C(=O)N[C@H](CC(N)=O)C(=O)N[C@@H](CC(=O)O)C(=O)N[C@@H]1C(=O)NCC(=O)N[C@@H](CCCN)C(=O)N[C@@H](CC(=O)O)C(=O)N[C@H](C)C(=O)N[C@@H](CC(=O)O)C(=O)NCC(=O)N[C@H](CO)C(=O)N[C@@H]([C@H](C)CC(=O)O)C(=O)N[C@@H](CC(=O)c2ccccc2N)C(=O)O[C@@H]1C` [daptomycin] here?
Answer: comparable

Question: And the “minimum inhibitory concentration (MIC) value against susceptible strains, relative to vancomycin” value ([1]; susceptible strains, fold lower than vancomycin)?
Answer: ~4 fold

Question: What about the “bactericidal activity against gram-positive organisms” value ([1]; unlike glycopeptide antibiotics) of the same compound?
Answer: rapid, concentration-dependent bactericidal activity

Question: What about the “effect on renal toxicity caused by a co-administered aminoglycoside” value [2] of the same compound?
Answer: may ameliorate renal toxicity caused by the aminoglycoside
